The first assay deals with MAPK14 (human) (UniProt Q16539). Briefly: Assessment of MAPK14 Kinase Activity.
MAPK14 (human), sequence (Q16539 whole entry, looked up): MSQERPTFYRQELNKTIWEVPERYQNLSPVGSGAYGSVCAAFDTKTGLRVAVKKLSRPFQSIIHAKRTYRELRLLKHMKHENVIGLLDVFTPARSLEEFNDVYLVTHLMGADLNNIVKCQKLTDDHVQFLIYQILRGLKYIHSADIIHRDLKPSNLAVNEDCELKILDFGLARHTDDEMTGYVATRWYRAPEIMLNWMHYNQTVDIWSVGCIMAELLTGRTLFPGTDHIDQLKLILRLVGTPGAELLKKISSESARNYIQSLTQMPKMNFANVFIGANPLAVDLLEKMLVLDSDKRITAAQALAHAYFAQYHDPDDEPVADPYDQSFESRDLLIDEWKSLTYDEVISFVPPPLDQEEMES
Details: not given
`Clc1ccc(-c2n[nH]c(N3CCc4ccccc4C3)c2-c2ccncc2)cc1` showed an IC50 of 190 nM. Still for that read-out and setting: the same measure for `Cc1ccc(C(=O)NC2CC2)cc1Nc1nc(-c2ccc3[nH]ccc3c2)c(C(=O)NCc2ccccc2)s1`: greater than 100 nM. Same read-out and setting: the same measure for `Clc1ccc(-c2n[nH]c(N3CCN4CCC[C@H]4C3)c2-c2ccncc2)cc1`: 62 nM; for `Fc1ccc(Oc2cc3cnc(NC4CCOCC4)nc3cn2)c(F)c1`: less than 300 nM; for `CC(Oc1nncc2cc(Nc3ccc(F)cc3F)ccc12)C(F)(F)F` (stereo unspecified): 3.1 nM. Compound `Cc1ncccc1-c1nnc2c(F)c(-c3cc(C(=O)NC4CC4)cc(F)c3C)c(F)cn12` gave an IC50 of 81 nM. `[O-][n+]1ccc2c(-c3ccc(F)cc3F)cc(N3CCNCC3)nc2c1-c1c(F)cccc1F` registered an IC50 of 0.63 nM. `O=C(Nc1ccc(Oc2ccnc(N3CCCC3)n2)c2ccccc12)c1cc(F)cc(N2CCCCC2)c1` came in with an IC50 of 41.9 nM.

On to `Fc1ccc(-c2nc(SCc3ccccc3)[nH]c2-c2ccnc(Cl)c2)cc1`, for which the IC50 came to 1900 nM. The same measure, in the same setting: the same measure for `Cc1cccc(Nc2c(C(=O)N3CC[C@@H](O)C3)sc3c2ccc(=O)n3-c2c(F)cccc2F)n1`: 5 to 500 nM; for `CNc1nccc(-c2cccnc2Oc2ccc(Nc3nnc(-c4ccc(F)cc4)c4ccccc34)cc2)n1`: 1700 nM.

In the case of `Cc1cccc(Nc2c(C(=O)N3CC[C@H](O)C3)sc3c2ccc(=O)n3-c2c(F)cccc2F)n1`, the IC50 is 5 to 500 nM. As to `CC[C@@H](NC(=O)c1cn2ncnc(Nc3cc(NC(=O)c4cc(F)cc(N5CCOCC5)c4)ccc3C)c2c1C)OC`, the IC50 is 2 nM. Turning to `O=C(Nc1ccc(OCCN2CCOCC2)c2ccccc12)c1cccc(C=Cc2ccccc2)c1`, the IC50 is greater than 10000 nM. Same read-out and setting: the result for `Clc1ccc(-c2n[nH]c(N3CCCC4CCCCC43)c2-c2ccncc2)cc1` (stereo unspecified) reads 40 nM. Still for that read-out and setting: the same measure for `OC1CCN(c2[nH]nc(-c3ccc(Cl)cc3)c2-c2ccncc2)CC1`: 110 nM; for `Cc1nn(-c2ccccc2)c(O)c1C(=O)c1ccccc1`: greater than 100000 nM; for `CN(CCO)c1nccc(Oc2ccc(NC(=O)c3cc(F)cc(N4CCOCC4)c3)c3ccccc23)n1`: 18.7 nM. `Clc1ccc(-c2n[nH]c(N3CCC4CCCCC4C3)c2-c2ccncc2)cc1` (stereo unspecified) yielded an IC50 of 260 nM. `CC1CC(C)CN(c2[nH]nc(-c3ccc(Cl)cc3)c2-c2ccncc2)C1` (stereo unspecified) registered an IC50 of 130 nM. Turning to `COCCN1C(=O)N(c2ccccc2Cl)Cc2cnc(NC(C)C)nc21`, the IC50 is less than 10000 nM. `CC(C)Oc1n[nH]c2nc(Oc3ccc(F)cc3F)ncc12` showed an IC50 of 165 nM.

Compound `Cc1ccc(C(=O)NC2CC2)cc1Nc1ncc(C(=O)NCc2ccccc2)s1` registered an IC50 of less than 50 nM. On the same count and under the same terms, the result for `CCc1nc(-c2ccc(OC)cc2)[nH]c1-c1ccncc1` reads 8200 nM; that for `N=C(N)c1ccc(Cn2c(=O)[nH]c3cc(C(=O)c4ccccc4)ccc32)cc1`, 130 nM; that for `Cc1cccc(Nc2c(C(=O)N3CCC[C@H]3CO)sc3c2ccc(=O)n3-c2c(F)cccc2F)n1`, 5 to 500 nM.

Another assay shares this target. Description: Inhibition of MAPK14 Kinase Activity.
Details: not given
`CNc1cc2c(ccc(=O)n2-c2c(F)cccc2F)c(-c2ccc(F)cc2F)n1` registered an IC50 of 0.51 nM. On the same count and under the same terms, the same measure for `CC(C)OCc1ccc2c(c1)c1c3c(c4c(c1n2CCCOC(=O)CN(C)C)Cc1ccccc1-4)C(=O)NC3`: greater than 10000 nM; for `Cc1ccc(N)cc1-c1cc2cnn(-c3ccc(F)cc3F)c2n(C)c1=O`: no more than 100 nM.

For `O=c1c(Br)c(OCc2ccccc2)cnn1Cc1ccccc1`, the IC50 is greater than 100000 nM. The compound `Cc1ccc(C(=O)NC2CC2)cc1-n1cnc2ccc(OCCN3CCCC3)cc2c1=O` had a half-inhibitory concentration (IC50) of 33 nM. On the same count and under the same terms, the same measure for `CCC(C)(C)C(=O)O[C@H]1C[C@@H](C)C=C2C=C[C@H](C)[C@H](CC[C@@H](O)C[C@@H](O)CC(=O)O)[C@H]21`: greater than 100000 nM.

Turning to `Cc1ccc(-n2nc(C(C)(C)CO)cc2NC(=O)NCc2cc(F)ccc2Oc2ccc3c(cnn3CCO)c2)cc1`, the IC50 was less than 1 nM. For the compound `CCCCCOc1cccc(-c2nnc3ccc(Sc4ccc(CC(=O)Nc5cc(C(C)(C)C)nn5-c5ccc(C)cc5)cc4)cn23)c1`, the IC50 is less than 10 nM.

Take `Nc1cc2c(ccc(=O)n2-c2c(F)cccc2F)c(-c2ccc(F)cc2F)n1`: the IC50 was 0.69 nM. The same measure, in the same setting: the same measure for `O=c1ccc2c(-c3ccc(F)cc3F)[n+]([O-])ccc2n1-c1c(Cl)cccc1Cl`: 12 nM; for `CCN1CCN(c2ccc3ncn(-c4cc(C(=O)NC5CC5)ccc4C)c(=O)c3c2)CC1`: 23 nM. Compound `CNC(=O)c1ccc(Cn2c(C)cc(OCc3ccc(F)cc3F)c(Br)c2=O)cc1` displayed an IC50 of 25 nM. Same read-out and setting: the result for `CCCOc1cccc(-c2nnc3ccc(Sc4ccc(CC(=O)Nc5cc(F)cc(N6CCOCC6)c5)cc4)cn23)c1` reads 100 to 500 nM. The same measure, in the same setting: the same measure for `Cn1cc(-c2cnc3[nH]cc(C(=O)c4c(F)ccc(NS(=O)(=O)c5cccc(OC(F)F)c5)c4F)c3c2)cn1`: no more than 10000 nM; for `Fc1ccc(-c2cc(-c3ccc(Cl)cc3)oc2-c2ccncc2)cc1`: 530 nM.

The compound `Cc1ccc(C(=O)NC2CC2)cc1-c1cc2cnnc(-c3cc(F)ccc3Cl)c2n(C)c1=O` returned an IC50 of 1.6 nM. In turn, `CNC(=O)Nc1cc(COc2ccc(NC(=O)Nc3cc(C(C)(C)C)nn3-c3ccc(C)cc3)c3ccccc23)ccn1` showed an IC50 of less than 10 nM. In turn, `CCOc1ccc2c(-c3c(-c4cccc(CC)n4)nn4ccccc34)ccnc2c1` showed an IC50 of 369 nM. The same measure, in the same setting: the same measure for `CNCc1ccc(Cn2c(C)cc(OCc3ccc(F)cc3F)c(Br)c2=O)cc1`: 52 nM; for `Cc1ccc(C(=O)NC2CC2)cc1-c1ccc(C(=O)N(CCO)Cc2ccccc2)cc1`: less than 10000 nM; for `CCOc1ccc(-c2onc(-c3ccncc3)c2-c2ccc(F)cc2)cc1`: 10000 nM. On the same count and under the same terms, the result for `CCNC(=O)Nc1ccc2ncc(Nc3cnc4ccccc4c3)nc2n1` reads 1400 nM; that for `CONC(=O)c1ccc(C)c(Nc2nc(NCC3CCCC(CN)C3)nc(N[C@H](C)C(C)(C)C)n2)c1` (stereo partly specified), 2 nM. Still for that read-out and setting: the result for `COc1ccc(Nc2nc(NCCc3ccccc3F)nc(Nc3ccc4ncccc4c3)n2)cc1OC` reads greater than 40000 nM; that for `CC(C)(C)c1cc(NC(=O)NCc2cc(F)ccc2Oc2ccc3c(cnn3CCO)c2)n(-c2ccc(CO)cc2)n1`, less than 1 nM; that for `Cc1c(F)cc(C(=O)NC2CCCCC2)cc1-c1ccc(C(=O)NCC(C)(C)C)cc1C(=O)Nc1nccs1`, 3160 nM. In turn, `COc1ccccc1-c1nnc2sc(COc3ccc(F)cc3)nn12` came in with an IC50 of 650 nM. `Fc1ccc(-c2[nH]ccc2-c2ccncc2)cc1` returned an IC50 of 0.42 nM. On the same count and under the same terms, the result for `CC(n1c(N)nc2ccc(-c3[nH]c(-c4c(F)cccc4F)nc3-c3ccc(F)cc3)nc21)C(C)(C)C` (stereo unspecified) reads 3.3 nM; that for `O=C(NCCCN1CCOCC1)c1ccc2c(c1)C(=O)c1ccc(Nc3ccc(F)cc3F)cc1CC2`, 10 nM. `CC(C)c1nnc2ccc(Sc3ccc(CC(=O)Nc4cc(C(C)(C)C)nn4-c4cccc(CN5CCOCC5)c4)cc3)cn12`: the IC50 was in the range of 10 to 100 nM. For `CCCCN(C)c1nc(NCCc2ccccc2OC)nc(NC(Cc2c[nH]c3ncccc23)C(N)=O)n1` (stereo unspecified), the half-inhibitory concentration (IC50) is greater than 40000 nM. `Cc1ccc(C(=O)NC2CC2)cc1-c1ccc(C(=O)N(CCCO)Cc2ccccc2)cc1` came in with an IC50 of less than 10000 nM.

The assay is the same for the next values; noted with them: concentration not given here.
Turning to `CCC(O)C(O)n1c(=O)c(-c2ccc(F)cc2)c(-c2ccncc2)c2ccccc21` (stereo unspecified), the inhibition is 43%. `O=c1[nH]c2ccccc2c(-c2ccccc2)c1-c1ccccc1` returned an inhibition of 36%.

In general, IC50 refers to the concentration needed to halve the response being measured. Broadly, the inhibition is the share of the control response that was lost under treatment. High values mean a response far below the control, low ones a response near the control.

These data come from the Kinase Knowledgebase extract (Sharma et al. 2016).
